Results taken from patent publication US20220235064A1 (WELLMARKER BIO CO., LTD., priority 2019, published 2022).

Experiments:
[1] = tested on: cancer cell line KM12C, in which RON is activated; assay: Cell growth inhibitory ability in RON-activated cancer cell line (MTS); type: cell-based; conditions: Homo sapiens, 48 hours, absorbance 490 nm
Method: Experimental Example 2: Identification of Cell Growth Inhibitory Ability of Example Compounds in RON-Activated Cancer Cell Line
The cancer cell line KM12C (80015, KCLB, MEM+1K° FBS), in which RON is activated, was treated with each of the example compounds at a concentration of 10 μM, and then reaction was allowed to proceed for 48 hours. 24 hours after completion of the reaction, 20 μl of MTS solution (CellTiter 96 Aqueous One Solution Cell Proliferation Assay, product number: G3581, Promega) was added to each well, and then incubation was performed at a temperature of 37° C. in 50 CO2 incubator for 4 hours. Then, an IC50 value of the compound was derived by measuring its absorbance value at a wavelength of 490 nm using a Victor X5 plate reader. Here, as a positive control, N-(4-(2-amino-3-chloropyridin-4-yloxy)-3-fluorophenyl)-4-ethoxy-1-(4-fluorophenyl)-2-oxo-1,2-dihydropyridine-3-carboxamide, which is the compound of Example 1 in WO 2008/058229 A1, was used.

[2] = biological target: T1, RON tyrosine kinase (Homo sapiens, UniProt Q04912); assay: Enzyme inhibitory activity against RON tyrosine kinase (TR-FRET); type: biochemical; conditions: RON (Carna Bioscience)
T1 construct: purchased Carna Bioscience
T1 sequence (Q04912 25-1400): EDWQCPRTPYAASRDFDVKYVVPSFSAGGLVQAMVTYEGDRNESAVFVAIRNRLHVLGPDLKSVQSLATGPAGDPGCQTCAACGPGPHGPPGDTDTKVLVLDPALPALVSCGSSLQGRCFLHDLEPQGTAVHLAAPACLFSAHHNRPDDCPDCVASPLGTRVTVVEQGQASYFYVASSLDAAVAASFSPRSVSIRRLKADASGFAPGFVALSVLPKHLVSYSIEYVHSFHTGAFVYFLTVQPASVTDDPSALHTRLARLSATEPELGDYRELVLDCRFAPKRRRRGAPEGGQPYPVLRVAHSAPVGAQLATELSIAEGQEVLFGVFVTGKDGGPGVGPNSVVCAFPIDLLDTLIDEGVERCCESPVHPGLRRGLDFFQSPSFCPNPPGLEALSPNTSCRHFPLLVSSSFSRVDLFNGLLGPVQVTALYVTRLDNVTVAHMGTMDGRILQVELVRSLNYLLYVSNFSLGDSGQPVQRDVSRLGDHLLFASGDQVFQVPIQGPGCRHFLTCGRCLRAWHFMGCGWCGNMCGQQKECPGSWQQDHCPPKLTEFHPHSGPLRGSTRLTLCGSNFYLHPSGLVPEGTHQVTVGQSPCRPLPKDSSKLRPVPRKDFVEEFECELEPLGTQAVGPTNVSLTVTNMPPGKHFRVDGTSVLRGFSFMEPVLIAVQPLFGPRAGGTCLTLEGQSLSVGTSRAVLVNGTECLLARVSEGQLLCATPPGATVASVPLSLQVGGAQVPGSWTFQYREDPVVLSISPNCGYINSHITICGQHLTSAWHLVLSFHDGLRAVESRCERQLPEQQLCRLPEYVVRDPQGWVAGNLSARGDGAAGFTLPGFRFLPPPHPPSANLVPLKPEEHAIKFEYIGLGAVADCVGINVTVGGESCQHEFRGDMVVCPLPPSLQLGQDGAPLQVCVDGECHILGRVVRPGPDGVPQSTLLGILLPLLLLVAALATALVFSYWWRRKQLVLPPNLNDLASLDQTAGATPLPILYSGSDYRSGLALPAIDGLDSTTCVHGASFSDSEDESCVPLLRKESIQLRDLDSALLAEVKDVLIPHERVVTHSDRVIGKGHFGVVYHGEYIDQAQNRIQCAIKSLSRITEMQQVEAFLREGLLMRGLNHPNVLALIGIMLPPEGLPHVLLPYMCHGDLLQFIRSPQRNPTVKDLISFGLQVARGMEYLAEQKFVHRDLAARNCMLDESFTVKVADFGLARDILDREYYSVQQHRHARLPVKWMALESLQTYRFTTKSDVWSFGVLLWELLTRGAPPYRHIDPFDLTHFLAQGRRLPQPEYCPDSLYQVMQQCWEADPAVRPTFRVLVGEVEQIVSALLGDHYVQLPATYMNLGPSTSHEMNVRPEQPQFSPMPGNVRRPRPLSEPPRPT
Method: Experimental Example 1: Measurement of Enzyme Inhibitory Activity Against RON Tyrosine Kinase
To measure enzyme inhibitory activity of the example compounds against RON, IC50 values of the compounds were measured using fluorescence resonance energy transfer (FRET).
Specifically, first, RON (Carna Bioscience) was diluted in a kinase assay buffer (50 mM HEPES pH 7.5, 1 mM EGTA, 10 mM MgCl2, 2 mM DTT, and 0.01% Tween-20) to be at a concentration (0.4 nM) that is twice the final reaction concentration. The dilute was added to a 384-well-plate at 5 μl per well. Each of the example compounds was prepared at a concentration of 1 mM in 100% DMSO and diluted 8 times in a stepwise manner through 10-fold dilution. Each compound was diluted in a kinase assay buffer to be at a concentration that is 4 times the final reaction concentration. The dilute was added to a 384-well-plate at 2.5 μl per well, and incubation was performed at room temperature for 15 minutes.
Thereafter, an ATP solution (Sigma Aldrich) prepared at a concentration of 0.25 M was diluted in a kinase assay buffer to be at a concentration (60 μM) that is 4 times the final reaction concentration. Dilution of a tyrosine peptide substrate (Perkin-Elmer) was performed therein to be at a concentration (400 nM) that is 4 times the final reaction concentration. The dilute was added to a 384-well-plate at 2.5 µl per well. Reaction was allowed to proceed for 60 minutes by incubating the 384-well-plate at room temperature. Thereafter, EDTA (Sigma Aldrich) was diluted in a TR-FRET detection buffer (Perkin-Elmer) to be at a concentration (20 mM) that is twice the final reaction concentration. Dilution of a Europium-containing phosphotyrosine antibody (Perkin-Elmer) was performed in the diluted EDTA solution to be at a concentration (4 nM) that is twice the final reaction concentration, so that a stop solution for RON reaction was prepared.
The stop solution was added to the 384-well-plate at 10 μl per well to quench the reaction, and incubation was performed at room temperature for 60 minutes. Then, the 384-well-plate was read on a Victor X5 (Perkin-Elmer) plate reader. Here, the excitation wavelength was 340 nm, and the emission wavelengths were 620 nm and 665 nm. An IC50 value of the compound was derived using GraphPad Prism 5 program, in which the IC50 was derived by expressing emission energy at the wavelength of 665 nm as a function of the compound concentration.

Row | SMILES | IC50 [1] | IC50 [2]
1 | O=C(Nc1ccc(Oc2ccnc3cc(-c4ccccn4)sc23)c(F)c1)c1c2c(cn(-c3ccccc3)c1=O)CCO2 [Example 4] | 8 nM | 0.35 nM
2 | Cn1cnc(-c2cc3nccc(Oc4ccc(NC(=O)c5c6c(cn(-c7ccccc7)c5=O)CCO6)cc4F)c3s2)c1 [Example 9, N-(3-Fluoro-4-((2-(1-methyl-1H-imidazol-4-yl)thieno[3,2-b]pyridin-7-yl)oxy)phenyl)-6-oxo-5-phenyl-2,3,5,6-tetrahydrofuro[3,2-c]pyridine-7-carboxamide] | 0.6 nM | 0.5 nM
3 | CCNC(=O)c1cc2c(Oc3ccc(NC(=O)c4c5c(cn(-c6ccc(F)cc6)c4=O)CCO5)cc3F)ccnc2cc1OC [Example 51, N-(4-((6-(Ethylcarbamoyl)-7-methoxyquinolin-4-yl)oxy)-3-fluorophenyl)-5-(4-fluorophenyl)-6-oxo-2,3,5,6-tetrahydrofuro[3,2-c]pyridine-7-carboxamide] | 2 nM | 0.55 nM
4 | COc1cc2nccc(Oc3ccc(NC(=O)c4c5c(cn(-c6ccc(F)cc6)c4=O)CCO5)cc3F)c2cc1NC(=O)CN1CCOCC1 [Example 53, N-(3-Fluoro-4-((7-methoxy-6-(2-morpholinoacetamido)quinolin-4-yl)oxy)phenyl)-5-(4-fluorophenyl)-6-oxo-2,3,5,6-tetrahydrofuro[3,2-c]pyridine-7-carboxamide] | 3 nM | 1.03 nM
5 | O=C(Nc1ccc(Oc2ccnc(NCCCN3CCOCC3)c2Cl)c(F)c1)c1c2c(cn(-c3ccc(F)cc3)c1=O)CCO2 [Example 62, N-(4-((3-Chloro-2-((3-morpholinopropyl)amino)pyridin-4-yl)oxy)-3-fluorophenyl)-5-(4-fluorophenyl)-6-oxo-2,3,5,6-tetrahydrofuro[3,2-c]pyridine-7-carboxamide] | 1670 nM | 12.3 nM
6 | CN1CCC(Nc2cc(Oc3ccc(NC(=O)c4c5c(cn(-c6ccc(F)cc6)c4=O)CCO5)cc3F)ccn2)CC1 [Example 63, N-(3-Fluoro-4-((2-((1-methylpiperidin-4-yl)amino)pyridin-4-yl)oxy)phenyl)-5-(4-fluorophenyl)-6-oxo-2,3,5,6-tetrahydrofuro[3,2-c]pyridine-7-carboxamide] | 2280 nM | 20.6 nM
7 | O=C(Nc1ccc(Oc2ncnc3[nH]ccc23)c(F)c1)c1c2c(cn(-c3ccc(F)cc3)c1=O)CCO2 [Example 71, N-(4-((7H-pyrrolo[2,3-d]pyrimidin-4-yl)oxy)-3-fluorophenyl)-5-(4-fluorophenyl)-6-oxo-2,3,5,6-tetrahydrofuro[3,2-c]pyridine-7-carboxamide] | 11 nM | 8.24 nM
8 | O=C(Nc1ccc(Oc2ncnc3[nH]ncc23)c(F)c1)c1c2c(cn(-c3ccc(F)cc3)c1=O)CCO2 [Example 73, N-(4-((1H-pyrazolo[3,4-d]pyrimidin-4-yl)oxy)-3-fluorophenyl)-5-(4-fluorophenyl)-6-oxo-2,3,5,6-tetrahydrofuro[3,2-c]pyridine-7-carboxamide] | 8 nM | 17.5 nM
9 | COc1cc2c(Oc3ccc(NC(=O)c4c5c(cn(-c6ccc(F)cc6)c4=O)CCC5)cc3F)ccnc2cc1OCCCN1CCOCC1 [Example 77, N-(3-Fluoro-4-((6-methoxy-7-(3-morpholinopropoxy)quinolin-4-yl)oxy)phenyl)-2-(4-fluorophenyl)-3-oxo-3,5,6,7-tetrahydro-2H-cyclopenta[c]pyridine-4-carboxamide] | 10 nM | 9.32 nM
10 | COc1cc2c(Oc3ccc(NC(=O)c4c5c(cn(-c6ccccc6)c4=O)CCO5)cc3F)ccnc2cc1OCCN1CCOCC1 [Example 79, N-(3-Fluoro-4-((6-methoxy-7-(2-morpholinoethoxy)quinolin-4-yl)oxy)phenyl)-6-oxo-5-phenyl-2,3,5,6-tetrahydrofuro[3,2-c]pyridine-7-carboxamide] | 1 nM | 0.78 nM
11 | CNC(=O)c1cc2c(Oc3ccc(NC(=O)c4c5c(cn(-c6ccc(F)cc6)c4=O)CCO5)cc3F)ccnc2cc1OCCN1CCOCC1 [Example 163, N-(3-Fluoro-4-((6-(methylcarbamoyl)-7-(2-morpholinoethoxy)quinolin-4-yl)oxy)phenyl)-5-(4-fluorophenyl)-6-oxo-2,3,5,6-tetrahydrofuro[3,2-c]pyridine-7-carboxamide] | 2 nM | 0.1 nM
12 | O=C(Nc1ccc(Oc2ccnc3cc(OCCN4CCOCC4)c(F)cc23)c(F)c1)c1c2c(cn(-c3ccc(F)cc3)c1=O)CCO2 [Example 167, N-(3-Fluoro-4-((6-fluoro-7-(2-morpholinoethoxy)quinolin-4-yl)oxy)phenyl)-5-(4-fluorophenyl)-6-oxo-2,3,5,6-tetrahydrofuro[3,2-c]pyridine-7-carboxamide] | 6 nM | 0.83 nM
13 | O=C(Nc1ccc(Oc2ccnc3cc(OCCCN4CCOCC4)c(F)cc23)c(F)c1)c1c2c(cn(-c3ccc(F)cc3)c1=O)CCO2 [Example 168, N-(3-Fluoro-4-((6-fluoro-7-(3-morpholinopropoxy)quinolin-4-yl)oxy)phenyl)-5-(4-fluorophenyl)-6-oxo-2,3,5,6-tetrahydrofuro[3,2-c]pyridine-7-carboxamide] | 25 nM | 0.45 nM
14 | O=C(Nc1ccc(Oc2ccnc3cc(OCCN4CCOCC4)c(Cl)cc23)c(F)c1)c1c2c(cn(-c3ccc(F)cc3)c1=O)CCO2 [Example 171, N-(4-((6-Chloro-7-(2-morpholinoethoxy)quinolin-4-yl)oxy)-3-fluorophenyl)-5-(4-fluorophenyl)-6-oxo-2,3,5,6-tetrahydrofuro[3,2-c]pyridine-7-carboxamide] | 8 nM | 7.13 nM
15 | N#Cc1cc2c(Oc3ccc(NC(=O)c4c5c(cn(-c6ccc(F)cc6)c4=O)CCO5)cc3F)ccnc2cc1OCCN1CCOCC1 [Example 173, N-(4-((6-Cyano-7-(2-morpholinoethoxy)quinolin-4-yl)oxy)-3-fluorophenyl)-5-(4-fluorophenyl)-6-oxo-2,3,5,6-tetrahydrofuro[3,2-c]pyridine-7-carboxamide] | 3 nM | 0.58 nM
16 | N#Cc1cc2c(Oc3ccc(NC(=O)c4c5c(cn(-c6ccc(F)cc6)c4=O)CCO5)cc3F)ccnc2cc1OCCCN1CCOCC1 [Example 174, N-(4-((6-Cyano-7-(3-morpholinopropoxy)quinolin-4-yl)oxy)-3-fluorophenyl)-5-(4-fluorophenyl)-6-oxo-2,3,5,6-tetrahydrofuro[3,2-c]pyridine-7-carboxamide] | 4 nM | 1.61 nM
17 | COc1cc2nccc(Oc3ccc(NC(=O)c4c5c(cn(-c6ccc(F)cc6)c4=O)CCO5)cc3F)c2cc1OCCN1CCOCC1 [Example 175, N-(3-Fluoro-4-((7-methoxy-6-(2-morpholinoethoxy)quinolin-4-yl)oxy)phenyl)-5-(4-fluorophenyl)-6-oxo-2,3,5,6-tetrahydrofuro[3,2-c]pyridine-7-carboxamide] | 2 nM | 1.24 nM
18 | O=C(Nc1ccc(Oc2ccnc3ccc(OCCN4CCOCC4)cc23)c(F)c1)c1c2c(cn(-c3ccc(F)cc3)c1=O)CCO2 [Example 177, N-(3-Fluoro-4-((6-(2-morpholinoethoxy)quinolin-4-yl)oxy)phenyl)-5-(4-fluorophenyl)-6-oxo-2,3,5,6-tetrahydrofuro[3,2-c]pyridine-7-carboxamide] | 6 nM | 0.83 nM
19 | O=C(Nc1ccc(Oc2ccnc3ccc(OCCCN4CCOCC4)cc23)c(F)c1)c1c2c(cn(-c3ccc(F)cc3)c1=O)CCO2 [Example 178, N-(3-Fluoro-4-((6-(3-morpholinopropoxy)quinolin-4-yl)oxy)phenyl)-5-(4-fluorophenyl)-6-oxo-2,3,5,6-tetrahydrofuro[3,2-c]pyridine-7-carboxamide] | 25 nM | 0.45 nM
